Assay results published in ChEMBL document CHEMBL1128097, “Synthesis of Nh-acyl--aminoamides on rink resin: Inhibitors of the hematopoietic protein tyrosine phosphatase (HePTP)” (Bioorg Med Chem Lett, 1995).

Test: In vitro inhibition of Hematopoietic protein-tyrosine phosphatase using p-nitrophenyl phosphate as substrate.

SMILES	IC50 [µM]
COC(=O)CNC(=O)C(NC(=O)c1ccc(/C=C/C(=O)O)cc1)c1ccccc1 (stereo not drawn)	20.2
O=C(O)/C=C/c1ccc(C(=O)NC(C(=O)NCC(=O)O)c2ccccc2)cc1 (stereo not drawn)	10.4
CCCCCCC(NC(=O)c1ccc(/C=C/C(=O)O)cc1)C(=O)NCCCC (stereo not drawn)	9
CCCCCCC(NC(=O)c1ccc(/C=C/C(=O)O)cc1)C(=O)NC(C)(C)C (stereo not drawn)	7.5
CCCCCCC(NC(=O)c1ccc(/C=C/C(=O)O)cc1)C(=O)NCC(=O)OCC (stereo not drawn)	10
CCOC(=O)CNC(=O)C(NC(=O)c1ccc(/C=C/C(=O)O)cc1)c1ccccc1 (stereo not drawn)	9.6
CCCCCCC(NC(=O)c1ccc(/C=C/C(=O)O)cc1)C(=O)NC1CCCCC1 (stereo not drawn)	9
CCCCCCC(NC(=O)c1ccc(/C=C/C(=O)O)cc1)C(=O)NCC(=O)O (stereo not drawn)	7.5
CC(NC(=O)c1ccc(/C=C/C(=O)O)cc1)C(=O)NCc1ccccc1 (stereo not drawn)	7.2
CCC(NC(=O)c1ccc(/C=C/C(=O)O)cc1)C(=O)NCc1ccccc1 (stereo not drawn)	15

Now from value to compound:

IC50 [µM]	SMILES
6	CCCCCCC(NC(=O)c1ccc(/C=C/C(=O)O)cc1)C(=O)NCc1ccccc1 (stereo not drawn)
3.9	O=C(O)/C=C/c1ccc(C(=O)NC(C(=O)NCc2ccccc2)c2ccccc2)cc1 (stereo not drawn)
6.7	CCCCNC(=O)C(NC(=O)c1ccc(/C=C/C(=O)O)cc1)c1ccccc1 (stereo not drawn)
4	CC(C)(C)NC(=O)C(NC(=O)c1ccc(/C=C/C(=O)O)cc1)c1ccccc1 (stereo not drawn)
6.2	O=C(O)/C=C/c1ccc(C(=O)NC(C(=O)NC2CCCCC2)c2ccccc2)cc1 (stereo not drawn)
7.2	CCCCCCC(NC(=O)c1ccc(/C=C/C(=O)O)cc1)C(=O)NCC(=O)OC (stereo not drawn)
6.1	CCCC(NC(=O)c1ccc(/C=C/C(=O)O)cc1)C(=O)NCc1ccccc1 (stereo not drawn)
6.3	CCCCC(NC(=O)c1ccc(/C=C/C(=O)O)cc1)C(=O)NCc1ccccc1 (stereo not drawn)
